From US12338220B2, “Antiviral pyrazolopiridinone compounds” (Novartis AG, priority 2019, dated 2025) come the findings set out here.

The target of one test is CMV-polymerase (Human cytomegalovirus (strain AD169) (HHV-5) (Human herpesvirus 5), UniProt P08546). Briefly: biochemical.
In the next test the test system is CMV. Briefly: microbe, parasite or virus in culture. It counts as cell-based. The conditions noted are these: Human betaherpesvirus 5, 72 h, read-out: CMV-Luc Cellular EC50, NN-NHDF cells, MOI 1, 72 hrs.
Setting [1] is: read-out: CMV-polymerase Biochemical IC50.
Setting [2] is: CMV-polymerase Biochemical IC50.

Where two headings read alike, the source gives them in different places.

By IC50 is commonly meant the point on the concentration scale where inhibition reaches its midpoint. By EC50 is commonly meant the concentration needed to bring the measured effect to its halfway point. As for `Cn1nc(C(=O)NCc2ccc(C#N)cc2)c2c1C(=O)N(CC1(S(=O)(=O)N3CCC(N)CC3)CC1)CC2` [Example 138, 6-((1-((4-Aminopiperidin-1-yl)sulfonyl)cyclopropyl)methyl)-N-(4-cyanobenzyl)-1-methyl-7-oxo-4,5,6,7-tetrahydro-1H-pyrazolo[3,4-c]pyridine-3-carboxamide], the 50% inhibitory concentration (IC50) on CMV-polymerase (setting [1]) came to 21 nM. In the test with CMV, the 50% effective concentration (EC50) was determined as 127 nM.
For `Cn1nc(C(=O)NCc2ccc(C#N)cc2)c2c1C(=O)N(CC1(S(=O)(=O)NC(C)(C)CO)CC1)CC2` [Example 149, N-(4-Cyanobenzyl)-6-((1-(N-(1-hydroxy-2-methylpropan-2-yl)sulfamoyl)cyclopropyl)methyl)-1-methyl-7-oxo-4,5,6,7-tetrahydro-1H-pyrazolo[3,4-c]pyridine-3-carboxamide], the half-inhibitory concentration (IC50) on CMV-polymerase (setting [1]) came to 12 nM. Besides, the EC50 in the test on CMV was 166 nM.
On CMV-polymerase (setting [2]), `Cn1nc(C(=O)NCc2ccc(C#N)cc2)c2c1C(=O)N(CC1(S(=O)(=O)C(C)(C)CN)CC1)CC2` [Example 70, 6-((1-((1-Amino-2-methylpropan-2-yl)sulfonyl)cyclopropyl)methyl)-N-(4-cyanobenzyl)-1-methyl-7-oxo-4,5,6,7-tetrahydro-1H-pyrazolo[3,4-c]pyridine-3-carboxamide] showed an IC50 of 3 nM. In the test on CMV, the EC50 is 61 nM.
With `Cn1ccc(NS(=O)(=O)C2(CN3CCc4c(C(=O)NCc5ccc(C#N)cc5)nn(C)c4C3=O)CC2)n1` [Example 156, N-(4-Cyanobenzyl)-1-methyl-6-((1-(N-(1-methyl-1H-pyrazol-3-yl)sulfamoyl)cyclopropyl)methyl)-7-oxo-4,5,6,7-tetrahydro-1H-pyrazolo[3,4-c]pyridine-3-carboxamide], at CMV-polymerase (setting [1]), the IC50 stood at 3 nM. For the same compound, the EC50 in the test on CMV was 100 nM.
The like results for `Cn1nc(C(=O)NCc2ccc(Cl)cc2)c2c1C(=O)N(CC1(S(=O)(=O)C3(C(O)CN)CC3)CC1)CC2` (centres unmarked) [Example 209, 6-((1-((1-(2-Amino-1-hydroxyethyl)cyclopropyl)sulfonyl)cyclopropyl)methyl)-N-(4-chlorobenzyl)-1-methyl-7-oxo-4,5,6,7-tetrahydro-1H-pyrazolo[3,4-c]pyridine-3-carboxamide] were, in that order, 1 nM and 10 nM.
In turn, `Cn1nc(C(=O)NCc2ccc(C#N)cc2)c2c1C(=O)N(CC1(S(=O)(=O)C3(CN)COC3)CC1)CC2` [Example 174, 6-((1-((3-(aminomethyl)oxetan-3-yl)sulfonyl)cyclopropyl)methyl)-N-(4-cyanobenzyl)-1-methyl-7-oxo-4,5,6,7-tetrahydro-1H-pyrazolo[3,4-c]pyridine-3-carboxamide] displayed an IC50 against CMV-polymerase (setting [2]) of 6 nM. For the same compound, the EC50 with CMV was 212 nM.
Take `Cn1nc(C(=O)NCc2ccc(C#N)cc2)c2c1C(=O)N(CC1(S(=O)(=O)C(C)(C)CN3CC4(COC4)C3)CC1)CC2` [Example 67, N-(4-Cyanobenzyl)-1-methyl-6-((1-((2-methyl-1-(2-oxa-6-azaspiro[3.3]heptan-6-yl)propan-2-yl)sulfonyl)cyclopropyl)methyl)-7-oxo-4,5,6,7-tetrahydro-1H-pyrazolo[3,4-c]pyridine-3-carboxamide]: at CMV-polymerase (setting [1]), the half-inhibitory concentration (IC50) came out at 2 nM. Besides, the concentration giving a half-maximal response (EC50) in the test with CMV was determined as 82 nM.
The like results for `Cn1nc(C(=O)NCc2ccc(Cl)cc2)c2c1C(=O)N(CC1(S(=O)(=O)N3CC(O)C3)CC1)CC2` [Example 150, N-(4-Chlorobenzyl)-6-((1-((3-hydroxyazetidin-1-yl)sulfonyl)cyclopropyl)methyl)-1-methyl-7-oxo-4,5,6,7-tetrahydro-1H-pyrazolo[3,4-c]pyridine-3-carboxamide] were, in that order, 6 nM and 67 nM.
The like results for `CC(C)(CO)S(=O)(=O)C1(CN2CCc3c(C(=O)NCc4ccc(C#N)cc4)nn(CCO)c3C2=O)CC1` [Example 220, N-(4-Cyanobenzyl)-6-((1-((1-hydroxy-2-methylpropan-2-yl)sulfonyl)cyclopropyl)methyl)-1-(2-hydroxyethyl)-7-oxo-4,5,6,7-tetrahydro-1H-pyrazolo[3,4-c]pyridine-3-carboxamide] were, in that order, 1 nM and 49 nM.
With `Cn1nc(C(=O)NCc2ccc(C#N)cc2)c2c1C(=O)N(CC1(S(=O)(=O)C(C)(C)CNC(=O)C(C)(C)N)CC1)CC2` [Example 77, 6-((1-((1-(2-Amino-2-methylpropanamido)-2-methylpropan-2-yl)sulfonyl)cyclopropyl)methyl)-N-(4-cyanobenzyl)-1-methyl-7-oxo-4,5,6,7-tetrahydro-1H-pyrazolo[3,4-c]pyridine-3-carboxamide], the IC50 at CMV-polymerase (setting [1]) is 12 nM. For the same compound, the concentration giving a half-maximal response (EC50) in the test on CMV worked out at 115 nM.
`Cn1nc(C(=O)NCc2ccc(Cl)cc2)c2c1C(=O)N(CC1(S(=O)(=O)C(C)(C)CO)CC1)CC2` [Example 50, N-(4-Chlorobenzyl)-6-((1-((1-hydroxy-2-methylpropan-2-yl)sulfonyl)cyclopropyl)methyl)-1-methyl-7-oxo-4,5,6,7-tetrahydro-1H-pyrazolo[3,4-c]pyridine-3-carboxamide] registered an IC50 against CMV-polymerase (setting [2]) of 1 nM. Also, the concentration for a half-maximal effect (EC50) in the test with CMV was found to be 20 nM.
In the case of `CCS(=O)(=O)C1(CN2CCc3c(C(=O)NCc4ccc(C#N)cc4)nn(C)c3C2=O)CC1` [Example 20, N-(4-Cyanobenzyl)-6-((1-(ethylsulfonyl)cyclopropyl)methyl)-1-methyl-7-ox0-4,5,6,7-tetrahydro-1 H-pyrazolo[3,4-c]pyridine-3-carboxamide], at CMV-polymerase (setting [1]), the IC50 is 6 nM. Further, in the test with CMV, the concentration giving a half-maximal response (EC50) was 106 nM.
The like results for `Cn1nc(C(=O)NCc2ccc(C#N)cc2)c2c1C(=O)N(CC1(S(=O)(=O)C3(CO)COC3)CC1)CC2` [Example 173, N-(4-Cyanobenzyl)-6-((1-((3-(hydroxymethyl)oxetan-3-yl)sulfonyl)cyclopropyl)methyl)-1-methyl-7-oxo-4,5,6,7-tetrahydro-1H-pyrazolo[3,4-c]pyridine-3-carboxamide] were, in that order, 3 nM and 74 nM.
The like results for `Cn1nc(C(=O)NCc2ccc(C#N)cc2F)c2c1C(=O)N(CC1(S(=O)(=O)C3CC3)CC1)CC2` [Example 13, N-(4-Cyano-2-fluorobenzyl)-6-((1-(cyclopropylsulfonyl)cyclopropyl)methyl)-1-methyl-7-oxo-4,5,6,7-tetrahydro-1H-pyrazolo[3,4-c]pyridine-3-carboxamide] were, in that order, 6 nM and 102 nM.
On to `Cn1nc(C(=O)NCc2ccc(C#N)cc2)c2c1C(=O)N(CC1(S(=O)(=O)NC3COC3)CC1)CC2` [Example 132, N-(4-Cyanobenzyl)-1-methyl-6-((1-(N-(oxetan-3-yl)sulfamoyl)cyclopropyl)methyl)-7-oxo-4,5,6,7-tetrahydro-1H-pyrazolo[3,4-c]pyridine-3-carboxamide], for which, on CMV-polymerase (setting [1]), the IC50 was 20 nM. In addition, the EC50 in the test on CMV amounted to 289 nM.
The like results for `Cn1nc(C(=O)NCc2ccc(Cl)cc2)c2c1C(=O)N(CC1(S(=O)(=O)NCC(C)(C)O)CC1)CC2` [Example 152, N-(4-Chlorobenzyl)-6-((1-(N-(2-hydroxy-2-methylpropyl)sulfamoyl)cyclopropyl)methyl)-1-methyl-7-oxo-4,5,6,7-tetrahydro-1H-pyrazolo[3,4-c]pyridine-3-carboxamide] were, in that order, 30 nM and 834 nM.
